# Patent US20220016048A1, “CANNABIDIOL-TYPE CANNABINOID COMPOUND” (GW Research Limited, priority 2018, published 2022)
# Where two headings read alike, the source gives them in different places.
# Experiments:
# [1] = Embryo-foetal development study in rats; format: in vivo, rat; conditions: female, Wistar (Han), rat, in vivo
# Experimental: (§1) The objective of the study was to determine the effects of CBD-C4 on the embryonic and foetal development of the rat. The toxicokinetic profile of CBD-C4 was also assessed.
# (§2) Three groups of 20 time-mated female Wistar (Han) rats were given CBD-C4 once daily by the oral (gavage) route from Day 6 to Day 17 of gestation at dose levels of 1, 10 or 100 mg/kg/day (at a constant dose volume of 5 mL/kg), to cover the period of organogenesis.
# (§3) A similar group of rats was given the vehicle, sesame oil, following the same regimen to act as controls.
# (§4) Blood samples were taken for toxicokinetic evaluation at pre-dose, 1, 2, 4, 6 and 24 hours after dosing on Days 6 and 17 of gestation. Clinical observations, body weight and food consumption were recorded. On Day 21 of gestation (GD 21) the females were euthanised, and the progress and outcome of pregnancy was evaluated.
# (§5) Foetuses were evaluated for external, visceral and skeletal malformations and […]
# [2] = test system: pregnant Wistar (Han) rats; assay: Embryo-foetal development study in rats; format: in vivo, rat
# Experimental: as §1, §2, §3, §4, §5
# [3] = 1, 10 or 100 mg/kg/day oral, GD 6-17
smiles,measurement,setting,value
"C=C(C)[C@@H]1CCC(C)=C[C@H]1c1c(O)cc(CCCC)cc1O [CBD-C4, (1′R,2′R)-4-butyl-5′-methyl-2′-(prop-1-en-2-yl)-1′,2′,3′,4′-tetrahydro-[1,1′-biphenyl]-2,6-diol]",NOAEL,"[1]; oral, embryo-foetal development study, sesame oil formulation (summary), read-out: NOAEL",100 mg/kg
same,NOAEL,"[1]; oral gavage GD 6-17, read-out: NOAEL for maternal and embryo-foetal toxicity",100 mg/kg/day
same,mean body weight of females,[2]; 1 mg/kg/day,unaffected
same,foetal malformations,"[2]; 10 mg/kg/day, different organ systems, no developmental pattern",two foetuses with malformations
same,mean food consumption,"[2]; 100 mg/kg/day, two days after the start of dosing, compared with controls",Lower mean food consumption
same,CBD-C4-related foetal malformations,"[2]; 1, 10 or 100 mg/kg/day",no CBD-C4-related foetal malformations
same,mean foetal weight and percentage of male foetuses,"[2]; 1, 10 or 100 mg/kg/day",no effect
same,"pregnancy parameters (number of implantations, pre- or post-implantation losses, number of live foetuses)","[2]; 1, 10 or 100 mg/kg/day",no effect
same,mortality,[2]; [3],no mortality
same,treatment-related clinical observations,[2]; [3],no treatment-related clinical observations
same,mean food consumption,[2]; 1 or 10 mg/kg/day,unaffected
same,mean body weight of females,"[2]; 10 or 100 mg/kg/day, one day after the start of dosing on Day 6 of gestation",Dose-related mean body weight loss
same,foetal variations,[2]; any of the groups maternally dosed,no noteworthy foetal variations
same,tolerability,"[2]; dose levels up to 100 mg/kg/day, pregnant rats",well tolerated
same,foetal malformations,[2]; maternally dosed at 1 or 100 mg/kg/day,no malformations
